Entries after “also recorded” stand apart in the source; their conditions may differ. Like-named read-outs stand apart in the source and are kept apart here.
Key:
[1] = system: human RL-251 adrenal tumor xenograft; assay: Time course in human RL-251 adrenal cancer xenograft; design: species or system SCID mouse; conditions: mouse, in vivo
Source text: (§1) NM404 has now been evaluated in 27 animal tumor models, including several lung, and it is clear that once the agent enters tumor cells, it reaches a metabolic dead end and becomes trapped. […] NM404 is also retained in spontaneous murine lung tumors (FIG. 13). Using ^125I-labeled NM404, the inventors have been able to image mammary and prostate tumors in mice in excess of 60 days. […] Imaging and tissue distribution studies performed in mouse models aimed at determining the uptake characteristics in a wide variety of tumor models are summarized in Table 2.

[2] = MIRDOSE radiation dose estimates for the adult female; design: species or system human (from female rat biodistribution data)
Description: Dosimetry estimation regarding I-125-NM404 for an adult female patients were calculated based on SPECT imaging data using female non-tumor bearing rats following administration of I-131-NM404. The results are listed below:
The dosimetry data were calculated from SPECT imaging in rats using I-131-NM404 and then converted to I-125-NM404. The adrenal gland seems to be the dose-limiting or critical organ for radiation exposure. In the SPECT imaging experiments the thyroids of rats were unblocked. Thus, the thyroid calculations should be evaluated with caution.

[3] = system: PC3 human prostate cancer; assay: Radiotherapy study in PC-3 SCID mouse xenograft model; assay type: in vivo; conditions: after treatment
Description: PC-3 (human prostate cancer, from ATCC) are maintained in Ham's F-12K media supplemented with 10% fetal bovine serum. Tumor cell suspension (1×10^6 cells in phosphate-buffered saline) is injected s.c. into the right flank of male SCID mice (6-8 weeks, C.B-17/IcrHsd-Prkcd^scid, Harlan). Animals are given free access to food and water, tumor growth and animal weight are monitored. Upon reaching 4-5 mm in diameter, mice will be divided into groups of 6 for therapy study.
Single injection of SF404A at Day 0
Groups: • (1) 5 study groups: 4 treatment+1 control • (2) N=6 per group • (3) 4 acute dose levels: 50, 150, 250 and 500 μCi per mouse • (4) Control group dosed with equivalent mass amount of NM404: 0 μCi per mouse (“cold” NM404)

[4] = Blood plasma kinetics in rats; assay type: in vivo; conditions: rat
[5] = system: Cervical; assay: Tumor models examined with NM404 (Table 2); assay type: in vivo, Transgenic mouse; conditions: Adenocarcinoma
Source text: as §1
(§2) Although tumor retention can be explained by a lack of metabolic phospholipase enzymes in the tumor cell membranes, the exact mechanism of tumor cell uptake is unknown. […] The inventors are currently evaluating the selectivity of NM404 in a unique mouse tumor model developed at Wisconsin, wherein both preneoplastic hyperplasias and malignant adenocarcinomas form spontaneously in the mammary gland. […] If this initial observation is validated, then via genomic and or proteomic analysis the inventors may be able to identify a key genetic difference between malignant tumors and their non malignant predecessor cells. This could identify a completely new molecular therapeutic target that may be universal for all types of cancer.

[6] = system: Retinoblastoma; assay: Tumor models examined with NM404 (Table 2); assay type: in vivo, Transgenic mouse; conditions: Blastoma
Source text: as §1, §2

[7] = system: Pancreas c-myc/k-ras; assay: Tumor models examined with NM404 (Table 2); assay type: in vivo, Transgenic mouse; conditions: Ductal/acinar
Source text: as §1, §2

[8] = system: TGFα Hepatoma; assay: Tumor models examined with NM404 (Table 2); assay type: in vivo, Transgenic mouse
Source text: as §1, §2

[9] = system: TRAMP prostate; assay: Tumor models examined with NM404 (Table 2); assay type: in vivo, Transgenic mouse; conditions: Adenocarcinoma
Source text: as §1, §2

[10] = system: Min Mouse Intestinal; assay: Tumor models examined with NM404 (Table 2); assay type: in vivo, Transgenic mouse; conditions: Adenocarcinoma
Source text: as §1, §2

[11] = Acute GLP toxicology, single dose, 14 days observation, rabbits; assay type: in vivo
Description: Formal toxicology studies of NM404 in male rats and rabbits were performed at the Toxicology Research Center of the State University of New York at Buffalo under the direction of Dr. Paul Kostyniak. Drug vehicle and drug product were provided to Dr. Kostyniak by Dr. Raymond Counsell of the University of Michigan for testing as described in the appended synopses of Study 27 and Study 28. […] Human safety studies of unlabeled NM404 were initiated in normal male humans at a mass of 10 times the anticipated imaging dose and about 21 times the anticipated therapy dose. […] This toxicology study was performed under GLP conditions.
Subsequently, the researchers at the University of Wisconsin initiated a toxicology study of unlabeled NM404 in female rats and rabbits (Study 31 and Study 32) at the Toxicology Research Center at SUNY-Buffalo in order to expand the patient population to be studied in the NSCLC Phase 1 clinical trial. […] Human safety studies of unlabeled NM404 were initiated in normal female humans at a mass of 10 times the initially anticipated imaging dose and about 21 times the anticipated therapy dose. […] This toxicology study was performed under GLP conditions.

[12] = assay type: in vivo, human
[13] = system: Mammary MCF-7; assay: Tumor models examined with NM404 (Table 2); assay type: in vivo, Rat; conditions: Adenocarcinoma
Source text: as §1, §2

[14] = system: Walker-256; assay: Tumor models examined with NM404 (Table 2); assay type: in vivo, Rat; conditions: Carcinosarcoma
Source text: as §1, §2

[15] = system: Prostate MatLyLu; assay: Tumor models examined with NM404 (Table 2); assay type: in vivo, Rat; conditions: Adenocarcinoma
Source text: as §1, §2

[16] = system: TRAMP prostate tumors; assay: Bioscan imaging of TRAMP mice prostate tumors; assay type: in vivo; conditions: 125I label 15 μCi, 1-8 days
Description: Following in vivo imaging of anesthetized mice, the prostate tumors were removed immediately, and imaged ex vivo on the same scanner (equipped with high resolution 1 mm collimator and 2-D acquisition and analysis software) in order to avoid tissue attenuation associated with the low energy of iodine-125 (FIG. 21). […] In an attempt to simulate bone metastases another experiment was performed wherein human PC-3 tumor cells were implanted into the tibia of immune compromised NUDE mice (n=6) according to a recent reports. Following tumor cell inoculation, mice were scanned serially by high-resolution microCT in order to monitor bone tumor development (FIG. 22). Once bone deterioration was detected, iodine-125 labeled NM404 was administered intravenously via tail vein. Mice were scanned for radioactivity and by microCT 4 days post NM404 administration. Radioactivity scans were fused with microCT scans (FIG. 23) to corroborate NM404 radioactivity and tumor location.

With `C[N+](C)(C)CCOP(=O)([O-])OCCCCCCCCCCCCCCCCCCc1ccc([125I])cc1` [Compound I-125-NM404] the tumor retention [1] was “retention is evident even after 20 days”, the “activity for 3 rads to Ovaries” value [2] was 20 mCi and the “activity for 5 rads to Adrenals” value [2] was 18 mCi. The “activity for 5 rads to Thyroids” value [2] was 4.5 mCi and the “time at which treatment and control tumor growth curves separate” value [3] was 4-5 weeks.

For `C[N+](C)(C)CCOP(=O)([O-])OCCCCCCCCCCCCCCCCCCc1ccc(I)cc1` [NM-404, 18-(4-iodophenyl)-octadecylphosphocholine], the half-life ([4]; read-out: distribution phase half life (converted)) was 4.86 h, the half-life ([4]; read-out: elimination half life time in plasma (converted)) was about 209 h and the “NM404 Tumor Localization” value [5] was “Yes (Localization defined as >5% injected dose per gram tumor basis based on tissue distribution data)”. The “NM404 Tumor Localization” value [6] was “Yes (Localization defined as >5% injected dose per gram tumor basis based on tissue distribution data)”, the “NM404 Tumor Localization” value [7] was “Yes (Localization defined as >5% injected dose per gram tumor basis based on tissue distribution data)” and the “NM404 Tumor Localization” value [8] was “Yes (Localization defined as >5% injected dose per gram tumor basis based on tissue distribution data)”. The “NM404 Tumor Localization” value [9] was “Yes (Localization defined as >5% injected dose per gram tumor basis based on tissue distribution data)”, the “NM404 Tumor Localization” value [10] was “Yes (Localization defined as >5% injected dose per gram tumor basis based on tissue distribution data)” and the toxic effects ([11]; female rabbits, 0.04 mg/kg (Study 32)) was “no significant toxic effects were noted”. The adverse effects ([11]; male and female rabbits) was “no adverse effects attributable to the test article were noted”, the toxic effects ([11]; male rabbits, 4 mg/kg (Study 28)) was “no significant toxic effects were noted” and the acute toxicity ([11]; unlabeled, 1200 times the anticipated imaging mass dose) was “no acute toxicities were found”. For the same molecule, the half-life ([12]; human, plasma, intravenous, 0.3 μg/kg, average, read-out: plasma elimination half life time (converted)) was 113 h, the agent cleared renally ([12]; within 4 days of iv injection) was 4% and the “NM404 Tumor Localization” value [13] was “Yes (Localization defined as >5% injected dose per gram tumor basis based on tissue distribution data)”. For the same molecule, the “NM404 Tumor Localization” value [14] was “Yes (Localization defined as >5% injected dose per gram tumor basis based on tissue distribution data)”, the “NM404 Tumor Localization” value [15] was “Yes (Localization defined as >5% injected dose per gram tumor basis based on tissue distribution data)” and the “uptake into prostate tumor and benign hyperplasia” value [16] was “uptake of NM404 into prostate tumor but not benign hyperplasia; also recorded: intense uptake of radioactivity in the prostate tumor”.
